{
  "source": "patent EP0450065A1",
  "about": "“ANTIVIRAL AGENT” (priority 1988, dated 1990)",
  "format_in_all_cases": "cell-based",
  "key": {"[1]": {"system": "herpes simplex virus type 1 (KOS strain)", "test": "50% Tissue culture infective dose (TCID50), Read-Munch method, negative logarithm of virus dilution", "design": "key to Cytopathic effect [CPE] (5days) TCID50 / Cytopathic effect [CPE] (3days) TCID50: TCID50 as negative log of maximum virus dilution ratio", "method": "(§1) The amount of virus infecting 50% of tissues (TCID₅₀) was determined by the Read-Munch method and expressed in negative logarithm of the maximum radio of dilution of virus. The difference of the amount thus determined from the amount found in the control (omitting the treatment with a chemical) was reported as ΔTCID₅₀. A sample whose ΔCPE's found on the last day of observation and on each of the days spent for the observation exceeded 1.0 was evaluated as effective.\n(§2) Antiviral activity of Compound A and Compound B against herpes simplex virus type 1 (KOS strain) The test was carried out by following the procedure of Example 3."}, "[2]": {"system": "herpes simplex virus type 2 (169 strain)", "test": "50% Tissue culture infective dose (TCID50), Read-Munch method, negative logarithm of virus dilution", "design": "key to Cytopathic effect [CPE] (5days) TCID50 / Cytopathic effect [CPE] (3days) TCID50 / Cytopathic effect [CPE] (6days) TCID50: negative log of maximum virus dilution infecting 50% of tissues", "settings": "HSV-2 (169); for log reduction at 100 µg/mL: difference from control", "method": "as §1\n(§3) In vitro antiviral activity of Compound A against herpes simplex virus type 2 (169 strain) The test was carried out by following the procedure of Example 3."}, "[3]": {"system": "herpes simplex virus type 1 (HF strain)", "test": "50% Tissue culture infective dose (TCID50), Read-Munch method, negative logarithm of virus dilution", "method": "In vitro antiviral activity of Compound A against herpes simplex virus type 1 (HF strain) Compound A was tested for antiviral effect by the following two methods.\nas §1\nIn vitro antiviral effect of Compound A against herpes simplex virus type 1 (HF strain) The test was carried out by following the procedure of Example 3."}, "[4]": {"system": "herpes simplex virus type 1 (KOS strain)", "test": "One-step growth of virus, plaque assay with vero cells", "settings": "100 μg/ml, 24 hours; for inhibition at 100 µg/mL / log reduction at 100 µg/mL: Human alphaherpesvirus 1, Vero, 24 h; for inhibition at 100 µg/mL: read-out: Intracellular virus Control ratio %; for log reduction at 100 µg/mL: read-out: Intracellular virus Control ratio -logT/C", "method": "Antiviral activity of Compound A and Compound B against one-step growth of herpes simplex virus type 1 (KOS strain) Cells grown in a monolayer, with a sample of a given compound diluted in a varying ratio added, were pretreated for 15 minutes. Then, the pretreated cells were infected with the herpes simplex virus type 1 (KOS strain) at an infecting ratio of 0.25 and left standing for 24 hours. At the end of the standing, the intracellular and extracellular amounts of virus were determined by the plaque assay with vero cells."}, "[5]": {"system": "herpes simplex virus type 1 (KOS strain)", "test": "Control of CPE (cytopathic effect) manifestation in vero cells", "settings": "100 μg/ml, HSV-1 (KOS), Example 7", "method": "(§4) Vero cells cultured and grown in a monolayer on microplates to test for cytopathic effect due to viral infection, with solutions of Compound A diluted to varying ratios and solutions of virus diluted to varying ratios added severally thereto in a volume of 0.1 ml, were cultured under the conditions of 5% CO₂ and 37°C and were examined for CPE manifestation under a microscope. The observation was continued for five to six days.\n(§5) The degree of CPE brought about by viral infection was rated on the five-point scale, wherein 3 stands for CPE observed on not less than 75% of cultured cells, 2 for CPE observed on 50% of cultured cells, 1 for CPE observed on 25% of cultured cells, 0.5 for occurrence of one to two extremely minute DPE spots, and 0 for perfect absence of recognizable CPE. The CPE scores obtained at the four holes in each microplate were averaged and the difference of the average from the average obtained in the control (omitting the treatment with a chemical) was reported as ΔCPE.\nas §2"}, "[6]": {"system": "herpes simplex virus type 2 (169 strain)", "test": "Control of CPE (cytopathic effect) manifestation in vero cells", "design": "key to Cytopathic effect [CPE] (3days) Average / Cytopathic effect [CPE] (5days) Average / Cytopathic effect [CPE] (6days) Average: CPE score 0-3: 3 = ≥75% cells, 2 = 50%, 1 = 25%, 0 = none", "settings": "100 μg/ml, HSV-2 (169)", "method": "as §4, §5, §3"}, "[7]": {"settings": "100 μg/ml, HSV-1 (KOS), Example 7"}, "[8]": {"settings": "100 μg/ml, HSV-1 (HF strain), Example 5"}, "[9]": {"settings": "100 μg/ml, HSV-1 (HF), Example 3"}, "[10]": {"settings": "Example 4, difference from control"}, "[11]": {"settings": "Example 6, difference from control"}},
  "note": "Where two headings read alike, the source gives them in different places.",
  "data": [
    {"smiles": "Nc1nc2c(ncn2COCCO)c(=O)[nH]1", "note": "[ACV, acyclovir, reference compound]", "values": [
      {"measurement": "Cytopathic effect [CPE] (3days) TCID50", "setting": "[1]; [7]", "result": 3.5},
      {"measurement": "Cytopathic effect [CPE] (5days) TCID50", "setting": "[1]; [7]", "result": 3.5},
      {"measurement": "log reduction at 100 µg/mL", "setting": "[1]; Human alphaherpesvirus 1, 72 h, read-out: Cytopathic effect [CPE] (3days) △TCID50", "result": 2},
      {"measurement": "log reduction at 100 µg/mL", "setting": "[1]; Human alphaherpesvirus 1, 120 h, read-out: Cytopathic effect [CPE] (5days) △TCID50", "result": 2.5},
      {"measurement": "Cytopathic effect [CPE] (3days) TCID50", "setting": "[2]; 100 μg/ml, Example 4", "result": 3.5},
      {"measurement": "Cytopathic effect [CPE] (5days) TCID50", "setting": "[2]; 100 μg/ml, Example 4", "result": 3.5},
      {"measurement": "Cytopathic effect [CPE] (3days) TCID50", "setting": "[2]; 100 μg/ml, Example 6", "result": "< 3.5"},
      {"measurement": "Cytopathic effect [CPE] (6days) TCID50", "setting": "[2]; 100 μg/ml, Example 6", "result": 3.5},
      {"measurement": "log reduction at 100 µg/mL", "setting": "[2]; Human alphaherpesvirus 2, 72 h, read-out: Cytopathic effect [CPE] (3days) △TCID50, 100 μg/ml, Example 4", "result": 3},
      {"measurement": "log reduction at 100 µg/mL", "setting": "[2]; Human alphaherpesvirus 2, 72 h, read-out: Cytopathic effect [CPE] (3days) △TCID50, 100 μg/ml, Example 6", "result": "> 3.2"},
      {"measurement": "log reduction at 100 µg/mL", "setting": "[2]; Human alphaherpesvirus 2, 120 h, read-out: Cytopathic effect [CPE] (5days) △TCID50, 100 μg/ml, Example 4", "result": 3},
      {"measurement": "log reduction at 100 µg/mL", "setting": "[2]; Human alphaherpesvirus 2, 144 h, read-out: Cytopathic effect [CPE] (6days) △TCID50, 100 μg/ml, Example 6", "result": 3.2},
      {"measurement": "Cytopathic effect [CPE] (3days) TCID50", "setting": "[3]; [8]", "result": 5.5},
      {"measurement": "Cytopathic effect [CPE] (6days) TCID50", "setting": "[3]; [8]", "result": 4.3},
      {"measurement": "Cytopathic effect [CPE] (3days) TCID50", "setting": "[3]; [9]", "result": 3.5},
      {"measurement": "Cytopathic effect [CPE] (5days) TCID50", "setting": "[3]; [9]", "result": 3.5},
      {"measurement": "log reduction at 100 µg/mL", "setting": "[3]; Human alphaherpesvirus 1, 72 h, read-out: Cytopathic effect [CPE] (3days) ΔTCID50", "result": 0.8},
      {"measurement": "log reduction at 100 µg/mL", "setting": "[3]; Human alphaherpesvirus 1, 72 h, 100 μg/ml, HSV-1 (HF), Example 3, difference from control, read-out: Cytopathic effect [CPE] (3days) △TCID50", "result": 2.5},
      {"measurement": "log reduction at 100 µg/mL", "setting": "[3]; Human alphaherpesvirus 1, 120 h, 100 μg/ml, HSV-1 (HF), Example 3, difference from control, read-out: Cytopathic effect [CPE] (5days) △TCID50", "result": 2.5},
      {"measurement": "log reduction at 100 µg/mL", "setting": "[3]; Human alphaherpesvirus 1, 144 h, read-out: Cytopathic effect [CPE] (6days) ΔTCID50", "result": 2},
      {"measurement": "Intracellular virus Average", "setting": "[4]", "result": "8.50×10^2 /dish"},
      {"measurement": "inhibition at 100 µg/mL", "setting": "[4]; extracellular virus", "result": "> 99.9", "unit": "%"},
      {"measurement": "log reduction at 100 µg/mL", "setting": "[4]; extracellular virus", "result": 5.78},
      {"measurement": "inhibition at 100 µg/mL", "setting": "[4]", "result": "> 99.9", "unit": "%"},
      {"measurement": "log reduction at 100 µg/mL", "setting": "[4]", "result": 5.68},
      {"measurement": "Cytopathic effect [CPE] (3days) Average", "setting": "[5]", "result": 0},
      {"measurement": "Cytopathic effect [CPE] (5days) Average", "setting": "[5]", "result": 0},
      {"measurement": "Cytopathic effect [CPE] (3days) △CPE", "setting": "[5]; difference from control", "result": 2.0},
      {"measurement": "Cytopathic effect [CPE] (5days) △CPE", "setting": "[5]; difference from control", "result": 3.0},
      {"measurement": "Cytopathic effect [CPE] (3days) Average", "setting": "[6]; Example 4", "result": 0},
      {"measurement": "Cytopathic effect [CPE] (5days) Average", "setting": "[6]; Example 4", "result": 0},
      {"measurement": "Cytopathic effect [CPE] (3days) △CPE", "setting": "[6]; [10]", "result": 1.5},
      {"measurement": "Cytopathic effect [CPE] (5days) △CPE", "setting": "[6]; [10]", "result": 3.05},
      {"measurement": "Cytopathic effect [CPE] (3days) Average", "setting": "[6]; Example 6", "result": 0},
      {"measurement": "Cytopathic effect [CPE] (6days) Average", "setting": "[6]; Example 6", "result": 0},
      {"measurement": "Cytopathic effect [CPE] (3days) △CPE", "setting": "[6]; [11]", "result": "> 2.5"},
      {"measurement": "Cytopathic effect [CPE] (6days) △CPE", "setting": "[6]; [11]", "result": 3.0}
    ]}
  ]
}
